Source: patent publication US10183936B2, “Hepatitis B core protein allosteric modulators” (priority 2014, dated 2019)

Tests used:
AD38 cells = experiment: Viability of AD38 cells (Promega CellTiter-Glo) at the end of compound treatment; type: cell-based; settings: 10 μM compound, 6 days, luminescence normalized against DMSO control wells (controls being 100%)
Outline: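 Luminescent CellTiter-Glo read-out, taken after supernatant was swapped for tetracycline-free 2% FBS medium with 1% DMSO, gave percent viability relative to DMSO controls set at 100%. Cells were plated at 50,000/well and exposed to compound, added as a 10× stock in 10% DMSO, for 6 days at 37° C.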

[1] = test system: HBV viral production in AD38 cells; experiment: Viral load production in AD38 cells by quantitative PCR of the HBV core sequence in supernatant; type: cell-based; settings: Hepatitis B virus, 144 h; 10 μM compound, 6 days at 37° C., viral load in supernatant compared against DMSO control wells; read-out: AD38 Viral Load (CpAM/DMSO %) at 10 μM
Outline: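 Read-out is TaqMan qPCR of the HBV core region in supernatant, quantitated against standards and referenced to DMSO controls (≥3 per plate). Cells: AD38 at 50,000/well, exposed to compound (added as 10× stock in 10% DMSO) for 6 days at 37° C.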

Compound | AD38 Viability Normalized Result (CPAM/DMSO %) at 10 μM (AD38 cells) [%] | activity at 10 µM [1] [%]
NC(=O)CSc1nnc(CCNC(=O)c2ccc3c(c2)NC(=O)c2ccccc2S3)o1 [Compound 1582] | 112 | 8
Cc1nnc(CCNC(=O)c2ccc3c(c2)NC(=O)c2ccccc2S3)[nH]1 [Compound 1583] | 121 | 41
O=C(NCc1cscn1)c1ccc2c(c1)NC(=O)c1ccccc1S2 [Compound 1584] | 95 | 52
O=C(NCc1ccncn1)c1ccc2c(c1)NC(=O)c1ccccc1S2 [Compound 1585] | 87 | 66
O=C(NCc1cnccn1)c1ccc2c(c1)NC(=O)c1ccccc1S2 [Compound 1586] | 112 | 23
O=C(NCc1ncccn1)c1ccc2c(c1)NC(=O)c1ccccc1S2 [Compound 1587] | 92 | 78
Cc1ncc(CNC(=O)c2ccc3c(c2)NC(=O)c2ccccc2S3)s1 [Compound 1588] | 98 | 0
O=C(NCc1cnc(Cl)s1)c1ccc2c(c1)NC(=O)c1ccccc1S2 [Compound 1589] | 85 | 1
O=C(NCc1cnc(-c2ccccc2)s1)c1ccc2c(c1)NC(=O)c1ccccc1S2 [Compound 1590] | 96 | 1
O=C(NCc1cccnc1)c1ccc2c(c1)NC(=O)c1ccccc1C2 [Compound 1591] | 111 | 13
O=C(NCC1CCCO1)c1ccc2c(c1)NC(=O)c1ccccc1S2 (stereo not shown) [Compound 1592] | 102 | 50
O=C(NCc1cncs1)c1ccc2c(c1)NC(=O)c1ccccc1O2 [Compound 1593] | 133 | 3
O=C(NCc1cccnc1)c1ccc2c(c1)NC(=O)c1ccccc1O2 [Compound 1594] | 109 | 4
O=C(NCc1cncnc1)c1ccc2c(c1)NC(=O)c1ccccc1O2 [Compound 1595] | 108 | 3
O=C1Nc2cc(S(=O)(=O)NCCc3cncnc3)ccc2Sc2ccccc21 [Compound 1597] | 87 | 64
O=C(NCCc1cncs1)c1ccc2c(c1)NC(=O)c1c(F)cccc1S2 [Compound 1598] | 93 | 61
O=C(NCc1nnc[nH]1)c1ccc2c(c1)NC(=O)c1ccccc1S2 [Compound 1599] | 101 | 72
Cc1ncsc1CNC(=O)c1ccc2c(c1)NC(=O)c1ccccc1S2 [Compound 1600] | 108 | 12
CC(=O)N1CCC(CNC(=O)c2ccc3c(c2)NC(=O)c2ccccc2S3)CC1 [Compound 1601, N-((1-acetylpiperidin-4-yl)methyl)-11-oxo-10, 11-dihydrodibenzo [b,f] [1,4] thiazepine-8-carboxamide] | 106 | 62
O=C(NCc1cncs1)c1ccc2c(c1)NC(=O)c1ccccc1N2 [Compound 1602, 11-oxo-N-(thiazol-5-ylmethyl)-10, 11-dihydro-5H-dibenzo [b,e] [1,4] diazepine-8-carboxamide] | 116 | 38
Cc1nnc(CCNC(=O)c2ccc3c(c2)NC(=O)c2ccccc2S3)o1 [Compound 1603] | 91 | 6
CCc1ncc(CNC(=O)c2ccc3c(c2)NC(=O)c2ccccc2S3)s1 [Compound 1604] | 105 | 0
O=C(NCc1scnc1-c1ccccc1)c1ccc2c(c1)NC(=O)c1ccccc1S2 [Compound 1605] | 106 | 25
O=C(NCC1CCOC1)c1ccc2c(c1)NC(=O)c1ccccc1S2 (stereo not shown) [Compound 1606] | 104 | 7
O=C(NCC1CCOCC1)c1ccc2c(c1)NC(=O)c1ccccc1S2 [Compound 1607] | 93 | 14

Compound | AD38 Viability Normalized Result (CPAM/DMSO %) at 10 μM (AD38 cells) [%] | activity at 10 µM [1] [%]
Cl.O=C(NCC1CCNC1)c1ccc2c(c1)NC(=O)c1ccccc1S2 (stereo not shown) [Compound 1608, 11-oxo-N-(pyrrolidin-3-ylmethyl)-10, 11-dihydrodibenz[b,f] [1,4] thiazepine-8-carboxamide hydrochloride] | 103 | 63
Cl.O=C(NCC1CCNCC1)c1ccc2c(c1)NC(=O)c1ccccc1S2 [Compound 1609, 11-oxo-N-(piperidin-4-ylmethyl)-10, 11-dihydrodibenzo [b,f] [1,4] thiazepine-8-carboxamide hydrochloride] | 99 | 68
CC(C)c1ncc(CNC(=O)c2ccc3c(c2)NC(=O)c2ccccc2S3)s1 [Compound 1611] | 130 | 0
COc1ncc(CNC(=O)c2ccc3c(c2)NC(=O)c2ccccc2S3)s1 [Compound 1612] | 112 | 0
Nc1ncc(CNC(=O)c2ccc3c(c2)NC(=O)c2ccccc2S3)s1 [Compound 1613] | 122 | 0
CC(C)c1ncsc1CNC(=O)c1ccc2c(c1)NC(=O)c1ccccc1S2 [Compound 1614] | 45 | 2
CC(=O)N1CCC(CNC(=O)c2ccc3c(c2)NC(=O)c2ccccc2S3)C1 (stereo not shown) [Compound 1615, N-((1-acetylpyrrolidin-3-yl)methyl)-11-oxo-10, 11-dihydrodibenzo [b,f] [1,4] thiazepine-8-carboxamide] | 123 | 32
O=C(NCCc1cnco1)c1ccc2c(c1)NC(=O)c1ccccc1S2(=O)=O [Compound 1616] | 115 | 5
O=C(NCCc1cncs1)c1ccc2c(c1)NC(=O)c1ccccc1S2(=O)=O [Compound 1617] | 118 | 1
O=C(NCCc1ccc(-c2ccccc2)cc1)c1ccc2c(c1)NC(=O)c1ccccc1S2(=O)=O [Compound 1618] | 44 | 0
CN(C)S(=O)(=O)c1ccc(CCNC(=O)c2ccc3c(c2)NC(=O)c2ccccc2S3(=O)=O)cc1 [Compound 1619] | 122 | 12
O=C(NCc1ccccc1)c1ccc2c(c1)NC(=O)c1ccccc1S2(=O)=O [Compound 1620] | 111 | 3
Cc1cccc(CNC(=O)c2ccc3c(c2)NC(=O)c2ccccc2S3(=O)=O)c1 [Compound 1621] | 117 | 1
O=C(NCc1cccc(F)c1)c1ccc2c(c1)NC(=O)c1ccccc1S2(=O)=O [Compound 1622] | 120 | 0
O=C(NCc1ccc(F)cc1)c1ccc2c(c1)NC(=O)c1ccccc1S2(=O)=O [Compound 1623] | 128 | 1
O=C(NCc1cccc(OC(F)(F)F)c1)c1ccc2c(c1)NC(=O)c1ccccc1S2(=O)=O [Compound 1624] | 136 | 1
O=C(NCCOc1ccccc1)c1ccc2c(c1)NC(=O)c1ccccc1S2(=O)=O [Compound 1625] | 111 | 2
O=C(NCCc1ccc(-n2nccn2)cc1)c1ccc2c(c1)NC(=O)c1ccccc1S2(=O)=O [Compound 1626] | 118 | 0
O=C(NCc1ccc(-c2cncnc2)cc1)c1ccc2c(c1)NC(=O)c1ccccc1S2(=O)=O [Compound 1627] | 115 | 5
COC(=O)c1ccccc1-c1cccc(NC(=O)c2ccc3c(c2)NC(=O)c2ccccc2S3(=O)=O)c1 [Compound 1628] | 138 | 17
O=C(Nc1cccc(-c2cccnc2)c1)c1ccc2c(c1)NC(=O)c1ccccc1S2(=O)=O [Compound 1629] | 95 | 3
CCc1ncsc1CNC(=O)c1ccc2c(c1)NC(=O)c1ccccc1S2 [Compound 1631] | 112 | 9
O=C(NCc1scnc1Cl)c1ccc2c(c1)NC(=O)c1ccccc1S2 [Compound 1632] | 122 | 2
Cl.O=C(NCC1CCCN1)c1ccc2c(c1)NC(=O)c1ccccc1S2 (stereo not shown) [Compound 1633, 11-oxo-N-(pyrrolidin-2-ylmethyl)-10, 11-dihydrodibenzo [b,f] [1,4] thiazepine-8-carboxamide hydrochloride] | 124 | 66
O=C(Nc1nccs1)c1ccc2c(c1)NC(=O)c1ccccc1S2(=O)=O [Compound 1634] | 125 | 45
